According to patent US20240190889A1, “NEW CYCLOPENTA-THIENO-DIAZEPINE DERIVATIVES AS GABA A GAMMA1 POSITIVE ALLOSTERIC MODULATORS” (Hoffmann-La Roche Inc., priority 2021, published 2024):
pKi: −log10 of the molar value. Read-outs that look alike come from different tables or passages of the source.

Key:
[1] = target: human GABAA α2β2γ1 receptor (Homo sapiens (Human), UniProt P47869+Q8N1C3); assay: Radioligand binding assay, competition for [3H]RO7239181, γ1-containing GABAA subtypes
Procedure: (§1) Membrane Preparation and Binding Assay for γ1-containing GABAA Subtypes
(§2) The affinity of compounds at GABAA γ1 subunit-containing receptors was measured by competition for [^3H]RO7239181 (67.3 Ci/mmol: Roche) binding to membranes from HEK293F cells (ThermoFisher R79007) expressing human (transiently transfected) receptors of composition α5β2γ1, α2β2γ1, α1β2γ1.
(§3) Harvested pellets from HEK293F cells expressing the different GABAA receptor subtypes were resuspended in Mannitol Buffer pH 7.2-7.4 (Mannitol 0.29 M, Tricthylamine 10 mM. Acetic acid 10 mM. EDTA 1 mM plus protease inhibitors (20 tablets Complete. Roche Diagnostics Cat. No. 05 056 489 001 per liter)), washed two times and then resuspended at 1:10 to 1:15 dilution in the same buffer. Cell disruption was performed by stirring the suspension in a Parr vessel #4637 at 435 psi for 15 minutes, and then the suspensions were centrifuged at 1000×g for 15 minutes at 4° C. (Beckman Avanti J-HC: rotor JS-4.2). The supernatant (S1) was transferred in a 21 Schott flask and the pellet (P1) was resuspended with Mannitol Buffer up to 175 ml. The resuspended pellet was transferred into a 250 ml Corning centrifugal beaker and centrifuged at 1500 ×g for 10 minutes at 4° C. (Beckman Avanti J-HC: rotor JS-4.2). The supernatant (S1) was then transferred in the 21 Schott flask and the pellet was discarded. The supernatants (S1) were centrifuged in 500ml Beckman polypropylene centrifugal beaker at 15 000×g for 30 minutes at 4° C. (Beckman Avanti J-20 XP; rotor JLA-10.500). The pellet (P2) was resuspended with Mannitol Buffer 1:1 and frozen at −80° C. The supernatant (S2) was centrifuged in 100 ml Beckman polypropylene centrifugal tubes at 48000×g for 50 minutes at 4 °C (Beckman Avanti J-20 XP: rotor JA-18). The supernatant (S3) was discarded and the pellet (P3) was resuspended with 1:1 Mannitol Buffer. The P2 and P3 protein concentration was determined with the BIORAD Standard assay method with bovine serum albumin as standard and measured on the NANO-Drop 1000. The membrane suspension was aliquots (500μl per tube) and stored at −80° C. until required.
(§4) Membrane homogenates were resuspended and polytronised (Polytron PT1200E Kinematica AG) in Potassium Phosphate 10 mM, KCl 100 mM binding buffer at pH 7.4 to a final assay concentration determined with a previous experiment.
(§5) Radioligand binding assays were carried out in a volume of 200 μL (96-well plates) which contained 100 μL of cell membranes. […] Assays were incubated to equilibrium for 1 hour at 4° C. and then, membranes were filtered onto unifilter (96-well white microplate with bonded GF/C filters preincubated 20-50 minutes in 0.3% Polyethylenimine) with a Filtermate 196 harvester (Packard BioScience) and washed 4 times with cold Potassium Phosphate 10 mM pH 7.4. KCl 100 mM binding buffer. After anhydrousing, filter-retained radioactivity was detected by liquid scintillation counting. Ki values were calculated using Excel-Fit (Microsoft) and are the means of two determinations.

[2] = target: human GABAA α1β2γ1 receptor (Homo sapiens (Human), UniProt P14867+Q8N1C3); assay: as above
Procedure: as §1, §2, §3, §4, §5

[3] = target: h-GABA-A α2β2γ1 receptor expressed in Xenopus laevis oocytes (Homo sapiens (Human), UniProt P47869+Q8N1C3); assay: Two-electrode voltage clamp electrophysiology in Xenopus oocytes expressing GABAA receptors; format: cell-based; conditions: for Efficacy (GABA)%: % modulation of GABA EC20 = 100*(Fold increase-1), compound at 30-fold Ki α2β2γ1; for Fold increase h-GABA-A α2β2γ1 oocyte @ 30-fold Ki: GABA EC20, test compound at approx. 30-fold its Ki α2β2γ1, at least 3 oocytes
Excerpt: Functional Expression of GABAA Receptors:
Xenopus Oocytes Preparation
Xenopus laevis oocytes at maturation stages V-VI were used for the expression of cloned mRNA encoding GABAA receptor subunits. Oocytes ready for RNA micro-injection were bought from Ecocyte, Castrop-Rauxel, Germany and stored in modified Barth's medium (composition in mM: NaCl 88, KCl 1, NaHCO3 2.4, HEPES 10, MgSO4 0.82, CaNO3 0.33, CaCl2 0.33, pH=7.5) at 20 C. until the experiment.
Xenopus Oocytes Microinjection
Oocytes were plated in 96-well plates for microinjection using the Roboinject automated instrument (MultiChannelSystems, Reutlingen, Germany). Approximately 50 nL of an aqueous solution containing the RNA transcripts for the subunits of the desired GABAA receptor subtype was injected into each oocyte. […] Oocytes were kept in modified Barth's medium (composition in mM: NaCl 88, KCl 1, NaHCO3 […], HEPES 10, MgSO4 0.82, CaNO3 0.33, CaCl2 0.33, pH=7.5) at 20° C. until the experiment.
Electrophysiological experiments were performed using the Roboocyte instrument (MultiChannelSystems, Reutlingen, Germany) on days 3 to 5 after the micro-injection of mRNA. During the experiment the oocytes were constantly superfused by a solution containing (in mM) NaCl 90, KCl 1, HEPES 5, MgCl: 1, CaCl, 1 (pH 7.4). Oocytes were impaled by two glass microelectrodes (resistance: 0.5-0.8 MS2) which were filled with a solution containing KCl 1M +K-acetate 1.5 M and voltage-clamped to −80 mV. The recordings were performed at room temperature using the Roboocyte two-electrode voltage clamp system (Multichannelsystem). After an initial equilibration period of 1.5 min GABA was added for 1.5 min at a concentration evoking approximately 20% of a maximal current response (EC20). After another rest interval of 2.5 min GABA was again added evoking a response of similar amplitude and shape. […] Current traces were recorded at a digitization rate of 10 Hz during and shortly before and after the GABA application.
Each compound and concentration was tested on at least 3 oocytes. Different oocytes were used for different compound concentrations.
For the analysis, the digitized current traces of the first and second GABA response were superimposed and, if necessary, rescaled to equal maximal amplitudes. The ratio between the two responses during the time interval of test compound application was calculated point by point. The extremum of the resulting “ratio trace” was taken as the efficacy (“Fold increase”) of the compound expressed as “% modulation of GABA EC” (100* (Fold increase-1)).

[4] = read-out: Ki h-GABAA α2β2γ1, membranes from HEK293F cells, [3H]RO7239181 20-30 nM, mean of two determinations

SMILES: Cc1nnc2n1-c1sc3c(c1C(c1c(F)cccc1F)=NC2)C[C@@H](C(F)F)C3 [Example 3, (13R)-13-(difluoromethyl)-9-(2,6-difluorophenyl)-3-methyl-16-thia-2,4,5,8-tetrazatetracyclo [8.6.0.02,6.011,15]hexadeca-1(10),3,5,8,11(15)-pentaene]
- pKi [1]: 8.54
- pKi [1, 4]: 8.54
- pKi [2]: 7.77
- Efficacy (GABA)% [3]: 54%
- Fold increase h-GABA-A α2β2γ1 oocyte @ 30-fold Ki [3]: 1.54

SMILES: C[C@@H]1N=C(c2c(F)cccc2F)c2c(sc3c2C[C@@H](C(F)F)C3)-n2nc(C(=O)N3CCS(=O)(=O)CC3)nc21 [Example 19, [(7S,13R)-13-(difluoromethyl)-9-(2,6-difluorophenyl)-7-methyl-16-thia-2,3,5,8-tetrazatetracyclo [8.6.0.02,6.011,15]hexadeca-1(10),3,5,8,11(15)-pentaen-4-yl]-(1,1-dioxo-1,4-thiazinan-4-yl)methanone]
- pKi [1]: 8.27
- pKi [1, 4]: 8.27
- Efficacy (GABA)% [3]: 43%
- Fold increase h-GABA-A α2β2γ1 oocyte @ 30-fold Ki [3]: 1.43

SMILES: Cc1nc2n(n1)-c1sc3c(c1C(c1c(F)cccc1F)=N[C@H]2C)C[C@@H](C(F)F)C3 [Example 16, (7S,13R)-13-(difluoromethyl)-9-(2,6-difluorophenyl)-4,7-dimethyl-16-thia-2,3,5,8-tetrazatetracyclo [8.6.0.02,6.011,15]hexadeca-1(10),3,5,8,11(15)-pentaene]
- pKi [1]: 8.64
- pKi [1, 4]: 8.64
- Efficacy (GABA)% [3]: 32%
- Fold increase h-GABA-A α2β2γ1 oocyte @ 30-fold Ki [3]: 1.32

SMILES: Cc1cnc2n1-c1sc3c(c1C(c1c(F)cccc1F)=N[C@H]2C)C[C@@H](C(F)F)C3 [Example 20, (7S,13R)-13-(difluoromethyl)-9-(2,6-difluorophenyl)-3,7-dimethyl-16-thia-2,5,8-triazatetracyclo [8.6.0.02,6.011,15]hexadeca-1(10),3,5,8,11(15)-pentaene]
- pKi [1]: 8.65
- pKi [1, 4]: 8.65
- Efficacy (GABA)% [3]: 70%
- Fold increase h-GABA-A α2β2γ1 oocyte @ 30-fold Ki [3]: 1.70

SMILES: Cc1nnc2n1-c1sc3c(c1C(c1c(F)cccc1F)=N[C@H]2C)C[C@@H](C(F)F)C3 [Example 5, (7S,13R)-13-(difluoromethyl)-9-(2,6-difluorophenyl)-3,7-dimethyl-16-thia-2,4,5,8-tetrazatetracyclo [8.6.0.02,6.011,15]hexadeca-1(10),3,5,8,11(15)-pentaene]
- pKi [1]: 8.47
- pKi [1, 4]: 8.47
- pKi [2]: 7.84
- Efficacy (GABA)% [3]: 41%
- Fold increase h-GABA-A α2β2γ1 oocyte @ 30-fold Ki [3]: 1.41

SMILES: Cc1nnc2n1-c1sc3c(c1C(c1c(F)cccc1F)=N[C@H]2C)C[C@@H](C)C3 [Example 15, (7S,13R)-9-(2,6-difluorophenyl)-3,7,13-trimethyl-16-thia-2,4,5,8-tetrazatetracyclo [8.6.0.02,6.011,15]hexadeca-1(10),3,5,8,11(15)-pentaene]
- pKi [1]: 8.20
- pKi [1, 4]: 8.20
- Efficacy (GABA)% [3]: 45%
- Fold increase h-GABA-A α2β2γ1 oocyte @ 30-fold Ki [3]: 1.45

SMILES: C[C@@H]1N=C(c2c(F)cccc2F)c2c(sc3c2C[C@@H](C(F)F)C3)-n2c(CO)cnc21 [Example 21, [(7S,13R)-13-(difluoromethyl)-9-(2,6-difluorophenyl)-7-methyl-16-thia-2,5,8-triazatetracyclo [8.6.0.02,6.011,15]hexadeca-1(10),3,5,8,11(15)-pentaen-3-yl]methanol]
- pKi [1]: 8.53
- pKi [1, 4]: 8.53
- Efficacy (GABA)% [3]: 68%
- Fold increase h-GABA-A α2β2γ1 oocyte @ 30-fold Ki [3]: 1.68

SMILES: Cc1nnc2n1-c1sc3c(c1C(c1c(F)cccc1Cl)=NC2)C[C@@H](C#N)C3 [Example 1, (13R)-9-(2-chloro-6-fluoro-phenyl)-3-methyl-16-thia-2,4,5,8-tetrazatetracyclo [8.6.0.02,6.011,15]hexadeca-1(10),3,5,8,11(15)-pentaene-13-carbonitrile]
- pKi [1]: 7.60
- pKi [1, 4]: 7.60
- pKi [2]: 7.32
- Efficacy (GABA)% [3]: 54%
- Fold increase h-GABA-A α2β2γ1 oocyte @ 30-fold Ki [3]: 1.54

SMILES: Cc1nnc2n1-c1sc3c(c1C(c1c(F)cccc1Cl)=NC2)C[C@@H](C(F)F)C3 [Example 4, (13R)-9-(2-chloro-6-fluoro-phenyl)-13-(difluoromethyl)-3-methyl-16-thia-2,4,5,8-tetrazatetracyclo [8.6.0.02,6.011,15]hexadeca-1(10),3,5,8,11(15)-pentaene]
- pKi [1]: 8.34
- pKi [1, 4]: 8.34
- Efficacy (GABA)% [3]: 51%
- Fold increase h-GABA-A α2β2γ1 oocyte @ 30-fold Ki [3]: 1.51
